Measurements: article PMC11738990, “A small-molecule TNIK inhibitor targets fibrosis in preclinical and clinical models” (Nature Biotechnology, 2024)
Several values for one entry are separate records, joined by “and”; a condition that tells them apart may be missing. Equal entries are not always repeated.

What was measured:
CD-1 mice = details: single IV; ref Insilico Medicine, 2021; cited from earlier work
C57BL/6 mice [1] = assay: LPS-induced acute lung injury model; type: in vivo, mouse; details: individual animals, Fig 3E-F;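 further: bronchoalveolar lavage fluid sampled one day after intratracheal LPS challenge, cytokines measured by ELISA in supernatant, lymphocytes counted on Diff-Quick stained cytospin smears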
Experimental: One day before the first experimental day, animals were grouped. All mice were anesthetized with Zoletil–xylazine (50 mpk and 10 mpk, i.p.). At 0 h, mice received LPS at a dose of 50 μl as 50 μg per mouse (groups 2–5, n = 8 per group) or 50 μl saline (group 1, n = 8 per group) by intratracheal administration. […] In the dexamethasone group (group 5), animals were treated with dexamethasone both 2 h before and 4 h after the LPS challenge. Twenty-four hours after the LPS challenge, animals were euthanized, and BALF samples were collected.
(§1) Mice were first anesthetized with Zoletil–xylazine (50 mpk and 10 mpk, i.p.). Next, a 1.5–2-cm longitudinal incision was made on the ventral side of the neck to expose the trachea by blunt dissection, and curved forceps were placed underneath the trachea. A 10–12-cm piece of suture was then threaded underneath the trachea using forceps. The ends of the suture were then pulled cranially to ‘stretch’ the trachea toward the surgeon. A 20-G needle was then used to poke a hole in the trachea as close to the larynx as possible. A 22-G blunt stainless steel needle connected to PE tubing was placed in the hole and inserted approximately 5–8 mm into the trachea. The cannula was secured in the trachea by tying the suture around it with an overhand knot. A 1-ml syringe containing 0.4 ml saline was gently pushed forward and backward three times to recover BALF fluid. BALF was transferred into empty tubes and stored on ice. This process was repeated twice with 0.3 ml saline for a total volume of 1 ml.
(§2) Total cell numbers were counted with a standard hemocytometer by mixing 20 μl BALF with 20 μl trypan blue. Cytospins were prepared by cytocentrifugation using Cytospins at 106g for 5 min, and then smears of BALF cells were stained with Diff-Quick stain. Cell differentiation was performed by counting at least 400 cells using standard hemocytologic criteria to classify them as alveolar macrophages or monocytes, neutrophils, eosinophils or lymphocytes. The rest of the BALF fluid was centrifuged, and supernatants were collected and stored at −80 °C for cytokine, chemokine and total protein analysis.
(§3) From the collected BALF, concentrations of cytokines were measured from mice in groups 2–7 killed on day 28. Mouse BALF cytokines and chemokines were measured using the ELISA Analysis Kit (Sinobest Bio). Mouse BALF soluble collagen was measured using the Soluble Collagen kit (Biocolor). Mouse lung hydroxyproline content was measured using the Hydroxyproline Assay Kit (Njjcbio).

Sprague Dawley rats [2] = assay: Bleomycin-induced lung fibrosis model, inhalation administration; type: in vivo, rat; details: individual animals, Fig 4
Experimental: On day 1 of the study, bleomycin hydrochloride was administered to 8–9-week-old Sprague Dawley rats at a final concentration of 1.5 mg ml^−1 in sodium chloride solution (dosed volume at 1.0 ml per kg) by intratracheal atomization (once in the morning and once in the afternoon) to build the pulmonary fibrosis model.
A German PARI compression atomizer (PARI TurboBOY) was set at an aerosol flow rate of 9–10 l min^−1. […] The dilution flow of aerosol was set at 0 l min^−1, and the pumping-out flow from the chamber was set at 6 l min^−1. The fluid rate was set at 0.5 ml min^−1 for test article replenishment. Before nebulization, aerosol-generation conditions were validated three times.
And these parameters were recorded in real time during the experiment.
For concentration assessment, a glass fiber filter membrane (φ = 37 mm) was used to measure aerosol concentrations during drug administration from approximately day 8 to day 28. Sampling was taken at 5 min (±1 min) after drug administration from a random exposure port. […] Aerosol particle size parameters were calculated with the system software: median mass aerodynamic diameter (MMAD), geometric standard deviation, fine particle fraction (percentage of fine particles with MMAD < 5 μm), etc.
On day 29 and before euthanasia, animals were anesthetized with chloral hydrate (90 mg ml^−1, 5 ml per kg, i.p.). Necks were cut longitudinally at the middle to isolate trachea, and a catheter was intubated into the trachea toward the tail direction and fixed with a suture thread. The anesthetized animals were placed into the plethysmography chamber, to which the airway was connected. The AniRes2005 animal lung function-analysis system was used to assess parameters including FVC, airway resistance and pulmonary compliance. The ventilator respiration rate was set to 65 beats per minute; the respiration ratio was set to 20:10; the negative pressure controller was set to 30 cm H2O. FVC detection was set to pressure-control mode, while pressure was set to 30 cm H2O. The startup mode was selected to automatically detect at the end of breath, and the ‘Start’ button was clicked to passively inhale and then turned to exhale after reaching the set pressure value. Next, the ‘Stop’ button was clicked to complete an FVC detection. Each animal was evaluated for FVC at least five times. The final result was the mean value after the maximum and minimum data were excluded for analysis.

Sprague Dawley rats [3] = assay: Bleomycin-induced skin scarring model; type: in vivo, rat; details: 0.05% topical
Experimental: Animals were anesthetized using isoflurane. Using a 1-ml syringe containing a 27-gauge needle, 100 µl bleomycin (1 mg ml^−1 in PBS) solution was injected subcutaneously into two sites on the shaved dorsal regions, QD for 4 weeks. Rats in the naive control group were injected daily with an equivalent volume of sterile PBS. […] After 4 weeks of treatment, animals were killed with CO2, and skin was collected.
Hydroxyproline and collagen concentrations were normalized to total protein content using the Bradford method.

C57BL/6 mice [4] = assay: Bleomycin-induced lung fibrosis model; type: in vivo, mouse
Experimental: Mice received bleomycin on day 1 at a dose of 0.66 mg per kg (equivalent to 1 U per kg), in a volume of 50 μl by intratracheal administration, or received saline (sham group). On day 7, dosing with the corresponding compounds was started. The vehicle group (group 1) was treated with 0.5% methylcellulose BID. […] On days 5 and 21, lung function measurement was performed. On day 28, all animals were killed, and blood and tissue samples were collected along with BALF.
Lung function was measured according to the HDB standard protocol. Expiratory time, relaxation time, peak expiratory flow and peak inspiratory flow were collected and used to calculate Penh data.
as §1, §2, §3
Left lung lobes were removed from each mouse and fixed in 10% NBF solution, embedded in paraffin and processed to obtain 4-μm sections for staining with H&E. H&E-stained slides were scanned using an Aperio ScanScope Model CS2 (Leica) at ×200 magnification. Images were then opened in the HALO Plus 5 workstation (version 2.3, Indica Labs) program. Using the pen annotation tool, the whole-lung section was selected as an annotation layer. The area of vessels was defined as background using the exclusion drawing tool. The total inflammation area was quantified by selecting the dark blue inflammation cells using the pen annotation tool manually. The percentage of H&E staining (inflammation area/total area of the lung) in the selected annotation was then calculated using the program.
Masson’s trichrome staining was conducted using a ready-to-use kit (Trichrome Stain (Masson) Kit, HT15, Sigma-Aldrich) as described by the manufacturer.
Lung sections were cut at a thickness of 4 μm, dried in an oven for 1 h and stained with M&T using our standard protocol.

[5] = G4 INS018_055 3mpk BID, 3 mg/kg
[6] = G5 INS018_055 10mpk BID, 10 mg/kg
[7] = G7 INS018_055 20mpk QD, 20 mg/kg

For `CC(C)n1cnc(-c2ccc(F)cc2)c1-c1nc(C(=O)Nc2ccc(N3CCN(C)CC3)cc2)c[nH]1` [INS018_055, 2-[4-(4-fluorophenyl)-1-(prop-2-yl)imidazol-5-yl]-N-[4-(4-methylhexahydropyrazin-1-yl)phenyl]-1H-imidazole-4-carboxamide], the LOAEL (CD-1 mice) is listed as 10 mg/kg, the IL-1β (C57BL/6 mice [1]; [5]) is listed as 76.808 and 90.9173 and 84.4347 and 88.6293 and 81.7653 and 68.4187 and 91.2987 and 66.512 and the IL-4 (C57BL/6 mice [1]; [5]) is listed as 44.4779 and 48.864 and 44.3266 and 42.2092 and 40.6967 and 44.6291 and 41.1504 and 43.4191. For the same compound, the IL-6 (C57BL/6 mice [1]; [5]) was 23.78 and 22.3 and 25.4 and 24.37 and 27.02 and 28.05 and 25.54 and 22.45, the IL-7 (C57BL/6 mice [1]; [5]) was 29.29 and 30.58 and 25.61 and 25.43 and 23.95 and 22.3 and 26.16 and 33.16 and the Lymphocytes (C57BL/6 mice [1]; [5]) was 9000 and 7000 and 5750 and 18000 and 15600 and 4800 and 11200 and 5600. For the same compound, the TNF-alpha (C57BL/6 mice [1]; [5]) was 286.33 and 268.83 and 288.52 and 360.7 and 260.08 and 336.64 and 303.83 and 209.77, the IL-1β (C57BL/6 mice [1]; [6]) was 66.512 and 53.5467 and 55.0721 and 69.944 and 59.2667 and 64.2241 and 56.5974 and the IL-4 (C57BL/6 mice [1]; [6]) was 47.5028 and 53.8551 and 49.9227 and 42.8141 and 45.5366 and 45.0828 and 51.2839 and 46.8978. The IL-6 (C57BL/6 mice [1]; [6]) was 20.39 and 23.04 and 25.84 and 22.45 and 25.99 and 18.47 and 19.8, the IL-7 (C57BL/6 mice [1]; [6]) was 19.9 and 17.14 and 19.72 and 14.2 and 24.69 and 21.38 and 23.4 and 26.72 and the Lymphocytes (C57BL/6 mice [1]; [6]) was 19800 and 10350 and 7200 and 6000 and 5400 and 8200 and 6450. For the same compound, the TNF-alpha (C57BL/6 mice [1]; [6]) was 238.21 and 262.27 and 306.02 and 187.89 and 181.33 and 336.64 and 196.64 and 198.83, the IL-1β (C57BL/6 mice [1]; G6 INS018_055 6mpk QD, 6 mg/kg) was 71.4694 and 80.24 and 88.248 and 64.6054 and 63.0801 and 87.104 and 80.6214 and the IL-4 (C57BL/6 mice [1]; G6 INS018_055 6mpk QD, 6 mg/kg) was 42.3604 and 46.7466 and 42.8141 and 44.4779 and 47.9565 and 44.7804 and 48.7128 and 38.7305. For the same compound, the IL-6 (C57BL/6 mice [1]; G6 INS018_055 6mpk QD, 6 mg/kg) was 27.31 and 23.19 and 22.45 and 27.76 and 33.8 and 25.99 and 28.93 and 26.87, the IL-7 (C57BL/6 mice [1]; G6 INS018_055 6mpk QD, 6 mg/kg) was 27.82 and 30.4 and 27.08 and 33.16 and 21.19 and 31.69 and 25.8 and 28.37 and the Lymphocytes (C57BL/6 mice [1]; G6 INS018_055 6mpk QD, 6 mg/kg) was 5200 and 1650 and 3850 and 2700 and 5250 and 5500 and 2600. The TNF-alpha (C57BL/6 mice [1]; G6 INS018_055 6mpk QD, 6 mg/kg) was 290.7 and 236.02 and 376.01 and 218.52 and 330.08 and 244.77 and 391.33 and 310.39, the IL-1β (C57BL/6 mice [1]; [7]) was 62.6987 and 77.952 and 78.7147 and 61.5547 and 74.52 and 71.8507 and 60.7921 and 57.3601 and the IL-4 (C57BL/6 mice [1]; [7]) was 48.1078 and 43.2679 and 48.4103 and 52.3427 and 52.0402 and 44.6291 and 51.7377 and 50.074. The IL-6 (C57BL/6 mice [1]; [7]) was 22.74 and 25.84 and 21.71 and 18.17 and 26.58 and 23.63 and 22.15 and 25.69, the IL-7 (C57BL/6 mice [1]; [7]) was 16.59 and 21.38 and 22.67 and 18.98 and 27.45 and 24.14 and 31.32 and 16.04 and the Lymphocytes (C57BL/6 mice [1]; [7]) was 6500 and 7200 and 8250 and 11600 and 6900 and 1650 and 6100 and 2700. For the same compound, the TNF-alpha (C57BL/6 mice [1]; [7]) was 244.77 and 214.14 and 279.77 and 218.52 and 163.83 and 341.01 and 179.15 and 292.89, the Cdyn (Sprague Dawley rats [2]; INS018_055 0.1 mg/mL) was 0.2868 mL/cmH2O and 0.282 mL/cmH2O and 0.2528 mL/cmH2O and 0.2276 mL/cmH2O and 0.2464 mL/cmH2O and 0.2949 mL/cmH2O and 0.266 mL/cmH2O and 0.2918 mL/cmH2O and 0.3725 mL/cmH2O and the FVC (Sprague Dawley rats [2]; INS018_055 0.1 mg/mL) was 11.667 and 10.372 and 9.331 and 9.408 and 9.013 and 11.225 and 10.246 and 9.406 and 11.458. For the same compound, the “MT staining for fibrosis” value (Sprague Dawley rats [2]; INS018_055 0.1 mg/mL) was 39.4049 and 24.0295 and 21.4518 and 29.9242 and 25.5526 and 41.2629 and 23.5476 and 24.3272 and 18.8851, the “Modified Ashcroft Score” value (Sprague Dawley rats [2]; INS018_055 0.1 mg/mL) was 3.58 and 3.5 and 3.67 and 4.67 and the RL (Sprague Dawley rats [2]; INS018_055 0.1 mg/mL) was 0.2183 cmH2O and 0.2228 cmH2O and 0.249 cmH2O and 0.2763 cmH2O and 0.2553 cmH2O and 0.2139 cmH2O and 0.2369 cmH2O and 0.215 cmH2O and 0.1673 cmH2O. For the same compound, the Cdyn (Sprague Dawley rats [2]; INS018_055 0.3 mg/mL) was 0.1877 mL/cmH2O and 0.26 mL/cmH2O and 0.28 mL/cmH2O and 0.2261 mL/cmH2O and 0.2364 mL/cmH2O and 0.2626 mL/cmH2O and 0.2848 mL/cmH2O and 0.214 mL/cmH2O and 0.2795 mL/cmH2O, the FVC (Sprague Dawley rats [2]; INS018_055 0.3 mg/mL) was 8.356 and 10.531 and 9.955 and 8.979 and 9.285 and 9.684 and 11.437 and 8.52 and 10.758 and the “MT staining for fibrosis” value (Sprague Dawley rats [2]; INS018_055 0.3 mg/mL) was 37.0531 and 32.9417 and 33.2766 and 28.9122 and 24.8997 and 24.7844 and 23.0018 and 21.403 and 19.6831. The “Modified Ashcroft Score” value (Sprague Dawley rats [2]; INS018_055 0.3 mg/mL) was 3.33 and 3.5 and 3.42 and 3.17 and 3.25, the RL (Sprague Dawley rats [2]; INS018_055 0.3 mg/mL) was 0.334 cmH2O and 0.2417 cmH2O and 0.2246 cmH2O and 0.2783 cmH2O and 0.266 cmH2O and 0.2397 cmH2O and 0.2213 cmH2O and 0.2931 cmH2O and 0.2253 cmH2O and the Cdyn (Sprague Dawley rats [2]; INS018_055 1 mg/mL) was 0.2887 mL/cmH2O and 0.2534 mL/cmH2O and 0.2831 mL/cmH2O and 0.2977 mL/cmH2O and 0.3373 mL/cmH2O and 0.3256 mL/cmH2O and 0.3052 mL/cmH2O and 0.2663 mL/cmH2O and 0.1759 mL/cmH2O. The FVC (Sprague Dawley rats [2]; INS018_055 1 mg/mL) was 11.605 and 10.16 and 11.107 and 11.731 and 11.449 and 11.248 and 11.212 and 9.823 and 10.688, the “MT staining for fibrosis” value (Sprague Dawley rats [2]; INS018_055 1 mg/mL) was 13.0601 and 19.1932 and 11.5913 and 20.3302 and 12.2482 and 5.166 and 2.8883 and 26.6827 and 9.6738 and the “Modified Ashcroft Score” value (Sprague Dawley rats [2]; INS018_055 1 mg/mL) was 3.08 and 2.5 and 1.92 and 1.58. The RL (Sprague Dawley rats [2]; INS018_055 1 mg/mL) was 0.2246 cmH2O and 0.2544 cmH2O and 0.2308 cmH2O and 0.2117 cmH2O and 0.1856 cmH2O and 0.1933 cmH2O and 0.2063 cmH2O and 0.2431 cmH2O and 0.3604 cmH2O, the Cdyn (Sprague Dawley rats [2]; INS018_055 6 mg/mL) was 0.2872 mL/cmH2O and 0.2596 mL/cmH2O and 0.2974 mL/cmH2O and 0.09892 mL/cmH2O and 0.2655 mL/cmH2O and 0.2689 mL/cmH2O and 0.283 mL/cmH2O and 0.2425 mL/cmH2O and 0.303 mL/cmH2O and the FVC (Sprague Dawley rats [2]; INS018_055 6 mg/mL) was 10.938 and 9.019 and 10.156 and 12.074 and 10.094 and 10.135 and 10.127 and 8.751 and 10.893. The “MT staining for fibrosis” value (Sprague Dawley rats [2]; INS018_055 6 mg/mL) was 11.7864 and 15.1925 and 36.9642 and 17.393 and 15.0833 and 12.2135 and 12.9504 and 11.5722 and 12.5986, the “Modified Ashcroft Score” value (Sprague Dawley rats [2]; INS018_055 6 mg/mL) was 2.25 and 3.08 and 3 and the RL (Sprague Dawley rats [2]; INS018_055 6 mg/mL) was 0.2197 cmH2O and 0.2419 cmH2O and 0.2117 cmH2O and 0.6313 cmH2O and 0.2427 cmH2O and 0.2338 cmH2O and 0.2227 cmH2O and 0.2591 cmH2O and 0.2072 cmH2O. For the same compound, the Hydroxyproline in skin (Sprague Dawley rats [3]) was 1036.36 and 1122.01 and 1193.18 and 833.714 and 660.98, the “Total collagen in skin” value (Sprague Dawley rats [3]) was 114.74 and 120.73 and 157.27 and 80.17 and 90.17 and the “reduction in fibrotic area vs vehicle” value (C57BL/6 mice [4]; 3 mg per kg BID) was “over 50%”. For the same compound, the “reduction in fibrotic area vs vehicle” value (C57BL/6 mice [4]; 10 mg per kg BID) was “more than 75%”, the “reduction in fibrotic area vs vehicle” value (C57BL/6 mice [4]; 30 mg per kg BID) was “more than 75%” and the “HE staining (inflammation area)” value (C57BL/6 mice [4]; 3mpk BID, individual animals) was 16.35 and 17.87 and 12.71 and 1.09 and 10.2 and 19.47 and 0.4 and 43.83 and 48.17 and 4.33. The “IL-1beta in BALF” value (C57BL/6 mice [4]; 3mpk BID, individual animals) was 154.02 and 147.65 and 144.47 and 164.21 and 155.93 and 168.67 and 177.59, the “IL-6 in BALF” value (C57BL/6 mice [4]; 3mpk BID, individual animals) was 126.67 and 118.83 and 123.05 and 144.15 and 121.24 and 147.77 and 123.65 and 122.44 and 139.33 and the “monocytes, cell count in BALF” value (C57BL/6 mice [4]; 3mpk BID, individual animals) was 48000 and 77000 and 128800 and 211900 and 99500 and 150400 and 143100 and 79600 and 62000. For the same compound, the “neutrophils, cell count in BALF” value (C57BL/6 mice [4]; 3mpk BID, individual animals) was 31200 and 500 and 700 and 0 and 1000, the “HE staining (inflammation area)” value (C57BL/6 mice [4]; 10mpk BID, individual animals) was 21.7 and 0.11 and 5.58 and 22.87 and 0.24 and 8.94 and 0.45 and 42.15 and 0.46 and 0.26 and the “IL-1beta in BALF” value (C57BL/6 mice [4]; 10mpk BID, individual animals) was 241.92 and 204.98 and 199.25 and 226 and 212.62 and 229.18 and 207.53 and 202.43 and 189.69 and 227.91. The “IL-6 in BALF” value (C57BL/6 mice [4]; 10mpk BID, individual animals) was 201.44 and 191.8 and 156.22 and 187.57 and 178.53 and 200.84 and 157.42 and 203.86 and 172.5 and the “monocytes, cell count in BALF” value (C57BL/6 mice [4]; 10mpk BID, individual animals) was 40000 and 80000 and 116200 and 4200 and 172000 and 84000 and 29600 and 114100 and 79200 and 38100.
